A word on the IC50: it is the concentration at which inhibition is half-maximal.

Among the data in patent publication US20240228512A1, “ACYCLIC OXAZEPINE COMPOUNDS COMPRISING A 6-AZA MOIETY AND USES THEREOF” (Genentech, Inc., priority 2022, published 2024) are IC50 values, retold here.

One assay has as its system H1975 cells. Briefly: H1975 CTG proliferation assay. It is filed as cell-based.
The target in assay [1] is recombinant human KRAS wild type (SOS1-mediated nucleotide exchange) (Homo sapiens (Human), UniProt P01116). Briefly: KRAS biochemical assay, BODIPY-GDP exchange TR-FRET (WT-GDP HTRF). Here is the method:
[Worded in the source for another variant; this variant is reported under the same test.] KRAS Biochemical Assay—BODIPY-GDP Exchange TR-FRET.
Biochemical compound potencies were assessed by evaluating inhibition of SOS1-mediated nucleotide exchange in KRAS G12D. The SOS1-promoted exchange of fluorescently-labeled GDP (BOPIDY-GDP) was monitored by time-resolved fluorescence resonance energy transfer (TR-FRET). Compounds solubilized in DMSO were dispensed as concentration series into 384-well white assay plates. […] The reaction was initiated with the addition of 5 μL of 3 nM recombinant human SOS1 and 300 nM BODIPY-GDP in assay buffer. After a 60-minute incubation, the fluorescence was measured with excitation at 337 nm and emission at 490 and 520 nm. The TR-FRET ratio was determined as the fluorescence at 520 nm divided by the fluorescence at 490 nm multiplied by 10,000. […] The normalized TR-FRET results were plotted against compound concentration, and the data fit to a 4-parameter Hill equation to determine the IC50 values.
On the technique in general: Time-resolved FRET reads energy transfer from a long-lived donor to a nearby acceptor.

A further assay relates to SW620 cells. Briefly: SW620 3D proliferation assay (CellTiter-Glo). It is filed as cell-based. The following applies: SW620, 3D culture, 7 days, read-out: SW620 CTG IC50. On the procedure: (§1) SW620 and HPAC 3D proliferation assays.
(§2) Compound potencies were assessed in proliferation assays conducted with SW620 and HPAC cell lines grown in 3D cultures. Cells were seeded into 96- or 384-well ultra-low attachment plates at 3000 or 1000 cells/well, respectively, in culture medium (RPMI-1640, 10% FBS, 2 mM L-glutamine). The plated cells were centrifuged briefly, allowed to rest for 30 minutes under ambient conditions, and cultured overnight at 37° C./5% CO2 to initiate the formation of spheroids. Compound dilutions were prepared across a range of concentrations in DMSO and added to the appropriate wells of the assay plates with a 333-fold dilution into the culture medium. The plates were further incubated for 7 days. The quantity of viable cells was assessed using CellTiter-Glo 3D Cell Viability Assay (Promega). The detection reagent penetrates the spheroids and lyses the cells. The released ATP that was detected with luciferase and a luciferase substrate to generate a luminescent readout. […] The data points were fit to a 4-parameter logistic equation to determine IC50 values.

For a further assay, the system named is HPAC cells. Description: HPAC 3D proliferation assay (CellTiter-Glo). It is filed as cell-based. The following applies: 3D culture, 7 days, read-out: HPAC CTG IC50. Here is the method:
as §1, §2

A further assay has as its system SW620 PERK. Description: SW620 PERK assay. The format is cell-based.
Assay [2] has as its target recombinant human mutant KRas G12V (SOS1-mediated nucleotide exchange) (Homo sapiens (Human), UniProt P01116, G12V). Description: KRAS biochemical assay, BODIPY-GDP exchange TR-FRET (G12V-GDP HTRF).
Where [3] appears, read: Homo sapiens, NCI-H1975, H1975, CTG.
Where [4] appears, read: Homo sapiens, SW-620, SW620, PERK.

Like-named read-outs stand apart in the source and are kept apart here.

Chain of recombinant human mutant KRas G12V (SOS1-mediated nucleotide exchange) (P01116-2 other isoform, or with tags, fused parts or gaps G12V): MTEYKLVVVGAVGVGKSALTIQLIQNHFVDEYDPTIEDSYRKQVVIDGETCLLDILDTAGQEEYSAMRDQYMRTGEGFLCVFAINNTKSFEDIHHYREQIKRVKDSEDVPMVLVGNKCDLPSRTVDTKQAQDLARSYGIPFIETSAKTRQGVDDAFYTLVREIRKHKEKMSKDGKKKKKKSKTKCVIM
Chain of recombinant human KRAS wild type (SOS1-mediated nucleotide exchange) (P01116-2 other isoform, or with tags, fused parts or gaps): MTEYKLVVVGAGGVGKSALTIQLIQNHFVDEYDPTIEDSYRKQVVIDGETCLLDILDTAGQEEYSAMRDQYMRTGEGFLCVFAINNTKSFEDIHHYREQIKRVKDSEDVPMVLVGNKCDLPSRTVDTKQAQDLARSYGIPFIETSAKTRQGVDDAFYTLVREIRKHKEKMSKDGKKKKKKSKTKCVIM

Consider `C[C@H](c1cccnc1N)N1CCOc2nc(-c3cc(N)nc4ccccc34)c(F)c3nc(OC[C@@]45CCCN4C[C@H](F)C5)nc1c23` [Example 602, 4-(10-((R)-1-(2-aminopyridin-3-yl)ethyl)-4-fluoro-2-(((2R,7aS)-2-fluorotetrahydro-1H-pyrrolizin-7a(5H)-yl)methoxy)-9,10-dihydro-8H-7-oxa-1,3,6,10-tetraazacyclohepta[de]naphthalen-5-yl)quinolin-2-amine], for which the IC50 is 296 nM with H1975 cells (setting [3]); 22.6 nM in assay [1]; 1950 nM with SW620 cells (Homo sapiens, SW-620, 168 h); > 2000 nM with HPAC cells (Homo sapiens, 168 h); 629 nM in the assay on SW620 PERK (setting [4]); 2.2 nM in assay [2].
For `Cc1cc(N)nc(-c2nc3c4c(nc(OC[C@@]56CCCN5C[C@H](F)C6)nc4c2Cl)N([C@H](C)c2cccnc2N)CCO3)c1C(F)(F)F` [Example 633, 6-(10-((R)-1-(2-aminopyridin-3-yl)ethyl)-4-chloro-2-(((2R,7aS)-2-fluorotetrahydro-1H-pyrrolizin-7a(5H)-yl)methoxy)-9,10-dihydro-8H-7-oxa-1,3,6,10-tetraazacyclohepta[de]naphthalen-5-yl)-4-methyl-5-(trifluoromethyl)pyridin-2-amine], the IC50 in the assay with H1975 cells (setting [3]) was 48.4 nM; in assay [1] it was 0.416 nM; in the assay with SW620 cells (Homo sapiens, SW-620, 168 h) it was 19.9 nM; with HPAC cells (Homo sapiens, 168 h) it was 77.8 nM; with SW620 PERK (setting [4]) it was 23 nM; in assay [2] it was 0.2 nM.
For `Cc1cc(N)nc(-c2nc3c4c(nc(OC[C@@]56CCCN5C[C@H](F)C6)nc4c2F)N(C(C)c2scnc2N)CCO3)c1C(F)(F)F` (stereo partly drawn) [Example 607, 5-(1-(5-(6-amino-4-methyl-3-(trifluoromethyl)pyridin-2-yl)-4-fluoro-2-(((2R,7aS)-2-fluorotetrahydro-1H-pyrrolizin-7a(5H)-yl)methoxy)-8,9-dihydro-10H-7-oxa-1,3,6,10-tetraazacyclohepta[de]naphthalen-10-yl)ethyl)thiazol-4-amine], the 50% inhibitory concentration (IC50) worked out at 35.5 nM in the assay with H1975 cells (setting [3]); 0.69 nM in assay [1]; 90.7 nM in the assay with SW620 cells (Homo sapiens, SW-620, 168 h); 302 nM in the assay with HPAC cells (Homo sapiens, 168 h); 17.8 nM in the assay on SW620 PERK (setting [4]); 0.27 nM in assay [2].
Take `C[C@H](c1cccnc1N)N1CCOc2nc(-c3cncc4cccc(Cl)c34)c(F)c3nc(OC[C@@]45CCCN4C[C@H](F)C5)nc1c23` [Example 19, 3-((R)-1-(5-(5-chloroisoquinolin-4-yl)-4-fluoro-2-(((2R,7aS)-2-fluorotetrahydro-1H-pyrrolizin-7a(5H)-yl)methoxy)-8,9-dihydro-10H-7-oxa-1,3,6,10-tetraazacyclohepta[de]naphthalen-10-yl)ethyl)pyridin-2-amine]: the results for the IC50 (in assay [1]; in the assay with SW620 PERK (setting [4]); in assay [2]) were 6.93 nM, 112 nM and 0.85 nM, respectively.
As for `Cc1c(F)c(N)cc(-c2nc3c4c(nc(OC[C@@]56CCCN5C[C@]5(CC5(F)F)C6)nc4c2F)N([C@H](C)c2cccnc2N)CCO3)c1C(F)(F)F` [Example 31, 3-((R)-1-(5-(5-amino-4-fluoro-3-methyl-2-(trifluoromethyl)phenyl)-2-(((1R,7a'S)-2,2-difluorodihydro-1′H,3′H-spiro[cyclopropane-1,2′-pyrrolizin]-7a′(5′H)-yl)methoxy)-4-fluoro-8,9-dihydro-10H-7-oxa-1,3,6,10-tetraazacyclohepta[de]naphthalen-10-yl)ethyl)pyridin-2-amine], the IC50 turned out to be 17.9 nM in the assay on H1975 cells (setting [3]); 0.419 nM in assay [1]; 16.2 nM in the assay on SW620 cells (Homo sapiens, SW-620, 168 h); 156 nM with HPAC cells (Homo sapiens, 168 h); 26.8 nM in the assay on SW620 PERK (setting [4]); 0.27 nM in assay [2].
Take `C[C@H](c1cccnc1N)N1CCOc2nc(-c3nc(N)cc4ccccc34)c(F)c3nc(OC[C@@]45CCCN4C[C@H](F)C5)nc1c23` [Example 618, 1-(10-((R)-1-(2-aminopyridin-3-yl)ethyl)-4-fluoro-2-(((2R,7aS)-2-fluorotetrahydro-1H-pyrrolizin-7a(5H)-yl)methoxy)-9,10-dihydro-8H-7-oxa-1,3,6,10-tetraazacyclohepta[de]naphthalen-5-yl)isoquinolin-3-amine]: the IC50 in the assay on H1975 cells (setting [3]) stood at 93.2 nM; in assay [1] it was 3.43 nM; with SW620 cells (Homo sapiens, SW-620, 168 h), 393 nM; in the assay on HPAC cells (Homo sapiens, 168 h), 1050 nM; in the assay on SW620 PERK (setting [4]), 233 nM; in assay [2], 0.45 nM.
With `Cc1cc(N)cc(-c2nc3c4c(nc(OC[C@@]56CCCN5C[C@H](F)C6)nc4c2F)N([C@H](C)c2cccnc2N)CCO3)c1C(F)(F)F` [Example 3, 3-((R)-1-(5-(5-amino-3-methyl-2-(trifluoromethyl)phenyl)-4-fluoro-2-(((2R,7aS)-2-fluorotetrahydro-1H-pyrrolizin-7a(5H)-yl)methoxy)-8,9-dihydro-10H-7-oxa-1,3,6,10-tetraazacyclohepta[de]naphthalen-10-yl)ethyl)pyridin-2-amine], the concentration for half-maximal inhibition (IC50) in the assay with H1975 cells (setting [3]) was 9.54 nM; in assay [1], 0.104 nM; with SW620 cells (Homo sapiens, SW-620, 168 h) it was 1.15 nM; with HPAC cells (Homo sapiens, 168 h), 8.79 nM; in the assay on SW620 PERK (setting [4]) it was 0.59 nM; in assay [2], 0.08 nM.
As to `Cc1nc(N)nc(-c2nc3c4c(nc(OC[C@@]56CCCN5C[C@H](F)C6)nc4c2F)N([C@H](C)c2cccnc2N)CCO3)c1C(F)(F)F` [Example 628, 4-(10-((R)-1-(2-aminopyridin-3-yl)ethyl)-4-fluoro-2-(((2R,7aS)-2-fluorotetrahydro-1H-pyrrolizin-7a(5H)-yl)methoxy)-9,10-dihydro-8H-7-oxa-1,3,6,10-tetraazacyclohepta[de]naphthalen-5-yl)-6-methyl-5-(trifluoromethyl)pyrimidin-2-amine], the concentration for half-maximal inhibition (IC50) in the assay on H1975 cells (setting [3]) came to 471 nM; in assay [1] it was 0.826 nM; with SW620 cells (Homo sapiens, SW-620, 168 h), 14.6 nM; in the assay with HPAC cells (Homo sapiens, 168 h), 331 nM; in the assay with SW620 PERK (setting [4]) it was 14 nM; in assay [2], 0.33 nM.
Consider `Cc1cc(N)c(Cl)c(-c2nc3c4c(nc(OC[C@@]56CCCN5C[C@H](F)C6)nc4c2F)N([C@H](C)c2cccnc2N)CCO3)c1C(F)(F)F` (single isomer, unassigned) [Example 21a], for which the IC50 stood at 180 nM in the assay with H1975 cells (H1975, CTG); 2.93 nM in assay [1]; 6.87 nM with SW620 cells; 103 nM with HPAC cells; 33.1 nM in the assay with SW620 PERK (SW620, PERK); 1.9 nM in assay [2].
Turning to `C[C@H](c1cccnc1N)N1CCOc2nc(-c3cc(N)ncc3C(F)(F)F)c(F)c3nc(OC[C@@]45CCCN4C[C@H](F)C5)nc1c23` [Example 608, 4-(10-((R)-1-(2-aminopyridin-3-yl)ethyl)-4-fluoro-2-(((2R,7aS)-2-fluorotetrahydro-1H-pyrrolizin-7a(5H)-yl)methoxy)-9,10-dihydro-8H-7-oxa-1,3,6,10-tetraazacyclohepta[de]naphthalen-5-yl)-5-(trifluoromethyl)pyridin-2-amine], the IC50 in the assay with H1975 cells (setting [3]) came to 243 nM; in assay [1] it was 3.38 nM; with SW620 cells (Homo sapiens, SW-620, 168 h), 246 nM; in the assay on HPAC cells (Homo sapiens, 168 h), 917 nM; with SW620 PERK (setting [4]), 45.1 nM; in assay [2] it was 0.52 nM.
`C[C@H](c1cccnc1N)N1CCOc2nc(-c3c(C(F)(F)F)ccc(N)c3Cl)c(F)c3nc(OC[C@@]45CCCN4C[C@H](F)C5)nc1c23` (atropisomer, axis not shown; (aS)) [Example 622a, 3-((R)-1-((R)-5-(3-amino-2-chloro-6-(trifluoromethyl)phenyl)-4-fluoro-2-(((2R,7aS)-2-fluorotetrahydro-1H-pyrrolizin-7a(5H)-yl)methoxy)-8,9-dihydro-10H-7-oxa-1,3,6,10-tetraazacyclohepta[de]naphthalen-10-yl)ethyl)pyridin-2-amine]: the half-inhibitory concentration (IC50) came to 766 nM in the assay on H1975 cells (setting [3]); 0.572 nM in assay [1]; 5.1 nM with SW620 cells (Homo sapiens, SW-620, 168 h); 39.6 nM in the assay with HPAC cells (Homo sapiens, 168 h); 3.2 nM in the assay with SW620 PERK (setting [4]); 0.19 nM in assay [2].
Turning to `Cc1nc(N)c(Cl)c(-c2nc3c4c(nc(OC[C@@]56CCCN5C[C@H](F)C6)nc4c2F)N([C@H](C)c2cccnc2N)CCO3)c1C(F)(F)F` (single isomer, unassigned) [Example 601a], the IC50 in the assay with H1975 cells (setting [3]) was found to be 47.6 nM; in assay [1] it was 0.255 nM; in the assay on SW620 cells (Homo sapiens, SW-620, 168 h) it was 6.14 nM; in assay [2], 0.07 nM.
